The results in this text go back to US20230263822A1, “MODULATION OF FACTOR 11 EXPRESSION” (Ionis Pharmaceuticals, Inc., priority 2008, published 2023).

What is called % inhibition is the drop in the measured response relative to a control, in per cent. Read a low % inhibition as little suppression.

One data set relates to human Factor 11 mRNA. The data set can be described thus: Antisense inhibition of human Factor 11 in HepG2 cells by microwalk gapmers, lipofectin, 75 nM (Example 3). Format: cell-based. The method, boiled down:
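HepG2 cells (10,000/well) were transfected via lipofectin with 75 nM 20-mer MOE gapmers (phosphorothioate, 5-methyl-C) for about 24 h. Factor 11 mRNA was measured by qRT-PCR, normalized to RIBOGREEN total RNA, and given as percent inhibition versus untreated cells.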

Data set [1] can be described thus: Tolerability in Sprague-Dawley rats: kidney function, urine protein/creatinine (Example 35). Particulars: Sprague Dawley rats.
Data set [2] is described as follows: Viscosity of ISIS antisense oligonucleotides, micro-viscometer at 25 °C (Example 47). Conditions: for Concentration: concentration of the viscosity sample, UV reading at 260 nM at 85° C.; for Viscosity: in water, micro-viscometer at 25° C., at the concentration of the same line. The class given is physicochemical. The method, boiled down:
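Oligonucleotide (32-35 mg) was dissolved in 120 μL water by heating at 50° C, and viscosity was measured by micro-viscometer at 25° C. Concentration was checked by UV at 260 nm at 85° C on a dilution in water. Screening cut-off: >40 cP at 165-185 mg/mL.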

Setting [3] is: HepG2 cells, lipofectin, gapmers targeted to nucleobases 1275 to 1318 of SEQ ID NO: 1.
[4] abbreviates: After treatment, 50 mg/kg s.c. twice per week for 6 weeks.
The mark [5] stands for this setting: Before antisense oligonucleotide treatment.

“416850 (antisense TGCACAGTTTCTGGCAGGCC; 5-10-5 gapmer, further chemistry not given here) [compound 416850]”: the “% inhibition” value in the data set on human Factor 11 mRNA (setting [3]) came out at 93%. In data set [1] (setting [4]), the Urine protein/creatinine ratio is given as 4.0. Besides, the Urine protein/creatinine ratio in data set [1] (setting [5]) was found to be 1.0. In data set [2], this substance displayed a Concentration of 152 mg/mL and a Viscosity of 67 cP.

As to “416858 (antisense ACGGCATTGGTGCACAGTTT; 5-10-5 gapmer, further chemistry not given here) [compound 416858]”, the “% inhibition” value with human Factor 11 mRNA (setting [3]) was 93%. Moreover, the Urine protein/creatinine ratio in data set [1] (setting [4]) is 4.4. For the same substance, the Urine protein/creatinine ratio in data set [1] (setting [5]) is 0.9. In data set [2], this substance yielded a Concentration of 166 mg/mL and a Viscosity of 10 cP.

With “416864 (antisense GGCAGCGGACGGCATTGGTG; 5-10-5 gapmer, further chemistry not given here) [compound 416864]”, in the data set on human Factor 11 mRNA (setting [3]), the “% inhibition” value worked out at 93%. Besides, the results for the Urine protein/creatinine ratio in data set [1] (setting [4]) and in data set [1] (setting [5]) were 4.0 and 1.2, respectively.

Turning to “416892 (antisense GCCCTTCATGTCTAGGTCCA; 3-14-3 chimeric gapmer, further chemistry not given here) [compound 416892]”, in the data set with human Factor 11 mRNA (HepG2, lipofectin, ~24 h, gapmers targeted to nucleobases 656 to 704 of SEQ ID NO: 1), the “% inhibition” value was found to be 100%. Moreover, the Urine protein/creatinine ratio in data set [1] (setting [4]) was 21.3; in data set [1] (setting [5]) it was 0.8.

As for “416925 (antisense GGTGCACAGTTTCTGGCAGG; 3-14-3 gapmer chemistry, further chemistry not given here) [compound 416925]”, the “% inhibition” value with human Factor 11 mRNA (setting [3]) came out at 98%. Also, the Urine protein/creatinine ratio stood at 4.3 in data set [1] (setting [4]) and 1.0 in data set [1] (setting [5]).

Consider “416999 (antisense GCACAGTTTCTGGCAGGCCT; 2-13-5 gapmer chemistry, further chemistry not given here) [compound 416999]”, for which the “% inhibition” value in the data set with human Factor 11 mRNA (setting [3]) was determined as 92%. Moreover, the Urine protein/creatinine ratio in data set [1] (setting [4]) is on record as 9.1; in data set [1] (setting [5]) it was 1.3.

Take “417002 (antisense GGTGCACAGTTTCTGGCAGG; 2-13-5 gapmer chemistry, further chemistry not given here) [compound 417002]”: in the data set on human Factor 11 mRNA (setting [3]), the “% inhibition” value turned out to be 92%. The Urine protein/creatinine ratio stood at 2.4 in data set [1] (setting [4]) and 1.0 in data set [1] (setting [5]).

Regarding “417003 (antisense TGGTGCACAGTTTCTGGCAG; 2-13-5 gapmer chemistry, further chemistry not given here) [compound 417003]”, the “% inhibition” value with human Factor 11 mRNA (setting [3]) is 89%. In addition, the Urine protein/creatinine ratio is given as 4.8 in data set [1] (setting [4]) and 0.9 in data set [1] (setting [5]).
